Laboratory results reported in patent publication US6887879B2, “Pharmaceutical combination of antiviral agents” (priority 1999, dated 2005).
Where two headings read alike, the source gives them in different places.

Experiments:
[1] = system: HIV-1 clinical isolate 4246; assay: Antiviral assay, HIV-1 clinical isolate 4246, CBMCs; assay type: cell-based; settings: Human immunodeficiency virus 1, read-out: EC50 in CBMCs
Protocol: (§1) HIV-1IIIB laboratory strain and HXB2-D recombinant of HIV-1 were kindly supplied by R. C. Gallo (Institute of Human Virology, Baltimore, Md.). […] The recombinant viruses were generated by transfection of proviral DNA into MT-4 cells with Lipofectamine using the protocol recommended by the manufacturer .(Gibco BRL, Montreal, Canada). […] Stock viruses were prepared from clarified culture supernatants by centrifugation and stored at −70° C. The viruses were titrated by limited dilution with a 4-fold serial dilution.
(§2) The population of HIV-1 in infected individual is quasispecies and the sensitivity of these different viruses found in clinical isolates to antiviral chemotherapy might be quite variable. In addition, HIV-1 isolates obtained from patients receiving long-term antiretroviral therapy might behave differently from cloned virus containing genetically engineered mutations in the RT gene. For these reasons, clinical isolates of HIV-1 from antiviral naive and drug-treated patients were assayed in PHA-stimulated CBMCs for their sensitivity to DXG and DAPD accompanied with approved antiretroviral agents. The genotype of the HIV-1 clinical isolates were determined as described above.

[2] = system: HIV-1 clinical isolate 4526; assay: Antiviral assay, HIV-1 clinical isolate 4526, CBMCs; assay type: cell-based; settings: Human immunodeficiency virus 1, naive
Protocol: as §1, §2

[3] = Cytotoxicity, [3H]-thymidine uptake, HepG2; assay type: cell-based; settings: human, HepG2 cells
Protocol: (§3) The cellular toxicity of the BCH compounds were assessed on various cells using [^3H]-thymidine uptake. The various cells, including Molt-4, HT1080, DU-145, HepG 2 and HSF, were plated at a concentration of 1-2×10^3 cells per well (96 well plates). However, PHA-stimulated PBMCs were cultured at a concentration of 4×10^4. After a 24 hr incubation period, 10-fold serial diluted compounds (10^−4 M to 10^−10 M) were added to the culture medium and the cells were further incubated for 72 hrs. [^3H]-thymidine was added during the final 18 hr incubation period. After incubation with the [^3H]-thymidine, the cells were washed once with PBS, treated with trypsin it the cells were adherent, and then resuspended in water (hypotonic lysing of cells) The cellular extract was applied directly to a Tomtec Harvester 96. Using this instrument the extracted DNA is adsorbed onto filters, washed and the incorporated [^3H]-thymidine is then counted.

recombinant HXB2-D 184V = assay: microbe, parasite or virus in culture; assay type: cell-based, HIV-1; settings: Human immunodeficiency virus 1, HXB2, read-out: EC50 in CBMCs
Protocol: as §1

[4] = system: recombinant HXB2-D 41L/70R/215Y/219Q; assay: microbe, parasite or virus in culture; assay type: cell-based, HIV-1; settings: for sensitivity of AZT resistant virus, in words: 41L, 70R, 215Y and 219Q, CBMCs, also observed in MT-2 cells; for EC50: Human immunodeficiency virus 1, HXB2, read-out: EC50 in CBMCs
Protocol: as §1

recombinant HXB2-D 74V = assay: microbe, parasite or virus in culture; assay type: cell-based, HIV-1; settings: Human immunodeficiency virus 1, HXB2, read-out: EC50 in CBMCs
Protocol: as §1

recombinant HXB2-D 65R = assay: microbe, parasite or virus in culture; assay type: cell-based, HIV-1; settings: Human immunodeficiency virus 1, HXB2, read-out: EC50 in CBMCs
Protocol: as §1

[5] = system: recombinant HXB2-D 41L/215Y/184V; assay: microbe, parasite or virus in culture; assay type: cell-based, HIV-1; settings: for EC50: Human immunodeficiency virus 1, HXB2, read-out: EC50 in CBMCs
Protocol: as §1

[6] = system: recombinant HXB2-D 10R/46I/63P/82T/84V; assay: microbe, parasite or virus in culture; assay type: cell-based, HIV-1; settings: Human immunodeficiency virus 1, HXB2, read-out: EC50 in CBMCs
Protocol: as §1

recombinant HXB2-D WT = assay: microbe, parasite or virus in culture; assay type: cell-based, HIV-1; settings: Human immunodeficiency virus 1, HXB2, read-out: EC50 in CBMCs
Protocol: as §1

[7] = Cytotoxicity, [3H]-thymidine uptake, Molt-4; assay type: cell-based; settings: human, Molt-4 cells
Protocol: as §3

[8] = system: HIV-1 clinical isolate 4205; assay: microbe, parasite or virus in culture; assay type: cell-based; settings: for EC50: Human immunodeficiency virus 1, read-out: EC50 in CBMCs; for decreased susceptibility compared to the lamivudine and AZT sensitive isolates: isolate 4205, 184V
Protocol: as §1, §2

[9] = system: HIV-1 clinical isolate 4242; assay: microbe, parasite or virus in culture; assay type: cell-based; settings: for sensitivity of isolate 4242, in words: 41L/70R/215Y in RT; for EC50: Human immunodeficiency virus 1, read-out: EC50 in CBMCs
Protocol: as §1, §2

[10] = system: HIV-1 clinical isolate 3887; assay: microbe, parasite or virus in culture; assay type: cell-based; settings: Human immunodeficiency virus 1, read-out: EC50 in CBMCs
Protocol: as §1, §2

[11] = system: HIV-1 clinical isolate 4833; assay: microbe, parasite or virus in culture; assay type: cell-based; settings: Human immunodeficiency virus 1, therapy Saquinavir (48 weeks), read-out: EC50 in CBMCs
Protocol: as §1, §2

[12] = system: HIV-1 clinical isolate 4877; assay: microbe, parasite or virus in culture; assay type: cell-based; settings: Human immunodeficiency virus 1, read-out: EC50 in CBMCs
Protocol: as §1, §2

[13] = system: HIV-1 clinical isolate 4924; assay: microbe, parasite or virus in culture; assay type: cell-based
Protocol: as §1, §2

[14] = system: HIV-1 clinical isolate 3350; assay: microbe, parasite or virus in culture; assay type: cell-based; settings: for EC50: Human immunodeficiency virus 1, read-out: EC50 in CBMCs; for decreased susceptibility compared to the lamivudine and AZT sensitive isolates: isolate 3350, 184V
Protocol: as §1, §2

[15] = Cytotoxicity, [3H]-thymidine uptake, HSF; assay type: cell-based; settings: human, human skin fibroblasts (HSF)
Protocol: as §3

HIV-1IIIB = assay: Anti-HIV-1 antiviral assay, laboratory strain HIV-1IIIB, RT activity in culture supernatants
Protocol: Most experiments were performed with a laboratory strain HIV-1III. […] The cells were incubated with virus using the indicated multiplicity of infection (MOI) for 2-3 hrs. The MOI used for each experiment was dependent upon the cell line and virus strain used, and was generally in the range of 0.005 to 0.5. For example, in assays performed using the established cell line MT-2, HIV-1IIIB at an MOI of 0.005 was used to infect cells. The unbound virus was then removed by washing the cells, followed by plating the cells into a 96-well plate. The infected cells were cultured in the presence of a serial concentrations of the test compound for 5-7 days. The anti-HIV-1 efficacy was determined by testing for HIV-1 RT activity in the cell culture supernatants. All assays were performed in duplicate and at least two independent experiments were performed. […] The susceptibilities of the HIV-1 variants to antiretroviral agents are expressed as the mean of the EC50 determinations.

[16] = Cytotoxicity, [3H]-thymidine uptake, PBMC; assay type: cell-based; settings: human, PHA-stimulated PBMCs
Protocol: as §3

[17] = Cytotoxicity, [3H]-thymidine uptake, DU145; assay type: cell-based; settings: human, DU145 cells
Protocol: as §3

[18] = Cytotoxicity, [3H]-thymidine uptake, HT-1080; assay type: cell-based; settings: human, HT-1080 cells
Protocol: as §3

[19] = system: recombinant HXB2-D 106A/181C; assay: microbe, parasite or virus in culture; assay type: cell-based, HIV-1; settings: Human immunodeficiency virus 1, HXB2, read-out: EC50 in CBMCs
Protocol: as §1

[20] = system: CBMCs, MT-2, H9, Jurkat and U937; assay: Cytotoxicity, WST-1 cell viability assay; assay type: cell-based, human; settings: WST-1, MT-2, H9, Jurkat and U937
Protocol: The cellular toxicity of the compounds was also tested by WST-1 staining through assessing proliferation of MT-2, H9, Jurkat, U937, and CBMCs. The established cell lines were cultured in RPMI medium in 96-well plates at a density of 5×10^4 cells/well while CBMCs were plated at a concentration of 0.5×10^6/well. A 10-fold serial diluted (10^−4−10^−7 M) compound was added at day zero. At day 4, the cells were passaged by changing half medium containing appropriately diluted compound. The cell activities were assessed at day 7 using the WST-1 reagent (Boehringer Mannheim) following the protocol provided by the supplier.

wt HIV-1 RT = target: T1, wt HIV-1 RT (Human immunodeficiency virus type 1 group M subtype B, UniProt P04585); assay: Chain elongation/termination assay; assay type: biochemical; settings: HIV-PBS template, dPR primer, raising inhibitor concentration
T1 construct: Wild type (wt) version of recombinant HIV-1 RT were expressed with a histidine tag; histidine tag; made in house; host or cells: E. coli
Protocol: RT inhibition assay. The inhibition of HIV-1 RT RNA dependent DNA polymerase activity of DXG-TP was assessed under steady-state enzymatic kinetics by employing homopolymeric RNA templates/DNA primers (T/P) and a heteropolymeric RNA template/DNA primer. The heteropolymeric RNA template contains the HIV-1 primer binding sequence, US and R regions (designated as HIV-PBS). […] The oligodeoxynucleotide primer (dPR) is an 18-mer (5′-[…]-3′) which is complementary to the HIV-1 primer binding sequence. […] Inhibition of dNTP incorporation/chain termination. […] HIV-PBS RNA template and dPR DNA primer were used in this system. The RT reactions were performed in […] containing 50 mM Tris (pH 7.8), 75 mM KCl, 10 mM MgCl2, 100 μM of dNTPs. […] The reactions were allowed to proceed at 37° C. for 60 min in the presence or absence of inhibitors. The transcribed DNA products were separated on a 5% denaturing polyacrylamide gel and visualized by exposure to X-ray film.
The chain elongation/termination assay provides a method to directly visualize the products of incorporation of dideoxynucleotide monophosphates into nascent DNA by monitoring the reaction products using polyacrylamide gel electrophoresis. The experiment was performed using wt HIV-1 RT, and HIV-PBS heteropolymeric template, and [^32p]ATP labeled dPR primer in the presence of various concentrations of RT inhibitor. […] As comparison, NNRTI nevirapine was also used in the assay.

[21] = Human immunodeficiency virus 1, read-out: EC50 in CBMCs
[22] = Human immunodeficiency virus 1, H9, read-out: EC50, mean values ± SD
[23] = Human immunodeficiency virus 1, Jurkat, read-out: EC50, mean values ± SD
[24] = Human immunodeficiency virus 1, MT2, read-out: EC50, mean values ± SD
[25] = Human immunodeficiency virus 1, MT4, read-out: EC50, mean values ± SD
[26] = Human immunodeficiency virus 1, U-937
[27] = Human immunodeficiency virus 1, read-out: EC50, mean values ± SD

Row | SMILES | EC50 [1] | EC50 [2] | CC50 at 72 h [3] | EC50 (recombinant HXB2-D 184V) | sensitivity of AZT resistant virus, in words [4] | EC50 [4] | EC50 (recombinant HXB2-D 74V) | EC50 (recombinant HXB2-D 65R) | EC50 [5] | EC50 [6] | EC50 (recombinant HXB2-D WT) | CC50 at 72 h [7] | EC50 [8] | decreased susceptibility compared to the lamivudine and AZT sensitive isolates [8] | sensitivity of isolate 4242, in words [9] | EC50 [9] | EC50 [10] | EC50 [11] | EC50 [12] | EC50 [13, 21] | other results
1 | Nc1nc(N)c2ncn([C@H]3CO[C@@H](CO)O3)c2n1 [DAPD, (−)- -D-2,6-diaminopurine-1,3-dioxolane] | 410 ± 20 nM | 850 ± 71 nM | > 500000 nM | 2100 ± 200 nM | remained completely sensitive | 1250 ± 590 nM | 6600 ± 3400 nM | 6500 ± 2100 nM | 2300 ± 50 nM | 1370 ± 60 nM | 1100 ± 160 nM | > 500000 nM | 4100 ± 350 nM | ~5 fold | remained sensitive | 880 ± 300 nM | 190 ± 120 nM | 630 ± 380 nM | 260 nM | 170 nM | EC50 [14]: 3300 ± 1200 nM; decreased susceptibility compared to the lamivudine and AZT sensitive isolates [14]: ~5 fold; CC50 at 72 h [15]: > 500000 nM; EC50 (HIV-1IIIB; [22]): 75 ± 40 nM; EC50 (HIV-1IIIB; [23]): 1370 ± 720 nM; EC50 (HIV-1IIIB; [24]): 540 nM; EC50 (HIV-1IIIB; [25]): 940 ± 28 nM; EC50 (HIV-1IIIB; [26]): 1300 nM; EC50 (HIV-1IIIB; [27]): 970 nM; EC50 fold higher than those for DXG (HIV-1IIIB; various cells): 5-20 fold; CC50 at 72 h [16]: > 500000 nM; CC50 at 72 h [17]: > 500000 nM; CC50 at 72 h [18]: > 500000 nM
2 | Nc1nc2c(ncn2[C@H]2CO[C@@H](CO)O2)c(=O)[nH]1 [DXG, (−)-β-D-1,3-dioxolane guanine] | 120 ± 80 nM | 55 ± 27 nM | > 500000 nM | 440 ± 70 nM | remained completely sensitive | 240 ± 20 nM | 1300 ± 800 nM | 1200 ± 200 nM | 410 ± 100 nM | 120 ± 30 nM | 210 ± 50 nM | > 500000 nM | 1100 ± 1190 nM | ~5 fold | remained sensitive | 210 ± 7 nM | 180 ± 7 nM | 170 ± 60 nM | 45 nM | 20 nM | EC50 [19]: 50 ± 7 nM; decreased sensitivity ([5]; 41L and 215Y combined with 184V): ~2 fold; EC50 [14]: 650 ± 330 nM; decreased susceptibility compared to the lamivudine and AZT sensitive isolates [14]: ~5 fold; CC50 at 72 h [15]: ≥ 500000 nM; EC50 (HIV-1IIIB; [22]): 60 ± 50 nM; EC50 (HIV-1IIIB; [23]): 340 ± 140 nM; EC50 (HIV-1IIIB; [24]): 85 nM; EC50 (HIV-1IIIB; [25]): 51 ± 9 nM; EC50 (HIV-1IIIB; [26]): 410 nM; EC50 (HIV-1IIIB; [27]): 46 nM; anti-HIV-1 efficacy fold less than that of AZT (HIV-1IIIB; various cells): 5-10 fold; CC50 at 72 h [16]: > 500000 nM; no toxicity up to (highest concentration tested) [20]: ≥ 100 µM; CC50 at 72 h [17]: > 500000 nM; CC50 at 72 h [18]: > 500000 nM
3 | Cc1ccnc2c1NC(=O)c1cccnc1N2C1CC1 [nevirapine, reference compound] |  |  |  |  |  |  |  |  |  |  |  |  |  |  |  |  |  |  | 65 nM | > 10000 nM | EC50 [19]: > 10000 nM; EC50 ([13]; Human immunodeficiency virus 1): > 10000 nM; chain termination / full-length products, in words (wt HIV-1 RT): showed the decrease of the full-length DNA products, but there were no extra chain termination bands generated
